According to patent publication US4490370A, “Naphthylglycyl cephalosporin derivatives” (priority 1983, dated 1984):
≈ marks a conversion by molar mass, not a printed value. Like-named read-outs stand apart in the source and are kept apart here.

Assays:
Format in all cases: cell-based
[1] = tested on: H. influ.; assay: Agar dilution MIC, H. influenza
Text: (§1) The following Tables present typical minimum inhibitory concentrations (MIC's) in μg/ml for the compounds when evaluated against the indicated microorganisms.

[2] = tested on: Klebsiella; assay: Agar dilution MIC, Klebsiella; details: Table I, strain X26
Text: (§2) A typical and preferred compound provided by this invention is 7-(2-naphthylglycylamido)-3-methyl-3-cephem-4-carboxylic acid, the compound of Example 3. The antibacterial activity of this compound and several others of the invention has been determined in standard in vitro agar dilution assays against a variety of gram positive microorganisms. The following Tables present typical minimum inhibitory concentrations (MIC's) in μg/ml for the compounds when evaluated against the indicated microorganisms. MIC's for several known compounds are also presented for comparison.

[3] = tested on: Strep. A; assay: Agar dilution MIC, Strep. A; details: Table I, strain C203
Text: as §2

[4] = tested on: Staph. aureus; assay: Agar dilution MIC, Staph. aureus
Text: as §1

[5] = tested on: Staph. epi; assay: Agar dilution MIC, Staph. epi
Text: as §1

[6] = tested on: Strep. PN; assay: Agar dilution MIC, Strep. PN; details: Table I, strain PARK
Text: as §1

[7] = Table I, strain BRUN, read-out: MIC
[8] = Table II, strain M366, read-out: MIC
[9] = Table II, strain R465, read-out: MIC
[10] = Table II, strain STEL, read-out: MIC
[11] = Staphylococcus aureus, Table II, strain S224, read-out: MIC
[12] = Staphylococcus aureus, Table II, strain S225, read-out: MIC
[13] = Staphylococcus aureus, Table II, strain S226, read-out: MIC
[14] = Staphylococcus aureus, Table II, strain S227, read-out: MIC
[15] = Staphylococcus aureus, Table II, strain S228, read-out: MIC
[16] = Staphylococcus aureus, Table II, strain S229, read-out: MIC
[17] = Staphylococcus aureus, Table II, strain S230, read-out: MIC
[18] = Staphylococcus aureus, Table II, strain S231, read-out: MIC
[19] = Staphylococcus aureus, Table II, strain S234, read-out: MIC
[20] = Staphylococcus aureus, Table II, strain S237, read-out: MIC
[21] = Staphylococcus aureus, Table II, strain S238, read-out: MIC
[22] = Staphylococcus aureus, Table II, strain S239, read-out: MIC
[23] = Table I, strain EPI1, read-out: MIC
[24] = Table II expanded spectrum, strain EPI1, read-out: MIC
[25] = Table II, strain 219, read-out: MIC
[26] = Table II, strain 269, read-out: MIC
[27] = Table II, strain 270, read-out: MIC
[28] = Table II, strain 285, read-out: MIC
[29] = Table II, strain 286, read-out: MIC

Compound: N[C@H](C(=O)N[C@@H]1C(=O)N2C(C(=O)O)=C(Cl)CS[C@H]12)c1ccc2ccccc2c1 [Ex. 5B, L-7-(2-naphthylglycylamido)-3-chloro-3-cephem-4-carboxylic acid]
- MIC ([1]; Table I, strain 251): 16 µg/mL (≈ 38.3 µM)
- MIC [2]: 2 µg/mL (≈ 4.79 µM)
- MIC [3]: 4 µg/mL (≈ 9.57 µM)
- MIC ([4]; Table I, strain X1.1): 8 µg/mL (≈ 19.1 µM)
- MIC ([5]; Table I, strain 222): 4 µg/mL (≈ 9.57 µM)
- MIC ([5]; Table I, strain EPI1): 32 µg/mL (≈ 76.6 µM)

Compound: CC1=C(C(=O)O)N2C(=O)C(NC(=O)[C@H](N)c3ccc4cc(O)ccc4c3)C2SC1 (stereo partly drawn) [Example 11, D-7-(6-hydroxy-2-naphthylglycyl-amido)-3-methyl-3-cephem-4-carboxylic acid]
- MIC ([6]; read-out: MIC): 0.25 µg/mL (≈ 0.605 µM)
- MIC [1, 7]: 8 µg/mL (≈ 19.3 µM)
- MIC [1, 8]: > 64 µg/mL
- MIC [1, 9]: 16 µg/mL (≈ 38.7 µM)
- MIC [1, 10]: > 64 µg/mL
- MIC ([2]; Klebsiella, read-out: MIC): 4 µg/mL (≈ 9.67 µM)
- MIC ([3]; read-out: MIC): 0.125 µg/mL (≈ 0.302 µM)
- MIC ([4]; Staphylococcus aureus, Table I, strain V41, read-out: MIC): 8 µg/mL (≈ 19.3 µM)
- MIC ([4]; Staphylococcus aureus, Table I, strain X1.1, read-out: MIC): 0.5 µg/mL (≈ 1.21 µM)
- MIC ([4]; Staphylococcus aureus, Table I, strain X400, read-out: MIC): 32 µg/mL (≈ 77.4 µM)
- MIC [4, 11]: 0.5 µg/mL (≈ 1.21 µM)
- MIC [4, 12]: 0.5 µg/mL (≈ 1.21 µM)
- MIC [4, 13]: 1 µg/mL (≈ 2.42 µM)
- MIC [4, 14]: 0.5 µg/mL (≈ 1.21 µM)
- MIC [4, 15]: 0.5 µg/mL (≈ 1.21 µM)
- MIC [4, 16]: 1 µg/mL (≈ 2.42 µM)
- MIC [4, 17]: 0.5 µg/mL (≈ 1.21 µM)
- MIC [4, 18]: 0.5 µg/mL (≈ 1.21 µM)
- MIC [4, 19]: 1 µg/mL (≈ 2.42 µM)
- MIC [4, 20]: 1 µg/mL (≈ 2.42 µM)
- MIC [4, 21]: 1 µg/mL (≈ 2.42 µM)
- MIC [4, 22]: 1 µg/mL (≈ 2.42 µM)
- MIC ([5]; Table I, strain 222, read-out: MIC): 1 µg/mL (≈ 2.42 µM)
- MIC [5, 23]: 4 µg/mL (≈ 9.67 µM)
- MIC [5, 24]: 4 µg/mL (≈ 9.67 µM)
- MIC [5, 25]: 0.5 µg/mL (≈ 1.21 µM)
- MIC [5, 26]: 2 µg/mL (≈ 4.84 µM)
- MIC [5, 27]: 4 µg/mL (≈ 9.67 µM)
- MIC [5, 28]: 2 µg/mL (≈ 4.84 µM)
- MIC [5, 29]: 1 µg/mL (≈ 2.42 µM)

Compound: COCC1=C(C(=O)O)N2C(=O)C(NC(=O)[C@H](N)c3ccc4ccccc4c3)C2SC1 (stereo partly shown) [Example 8, 7-(2-Naphthylglycylamido)-3-methoxymethyl-3-cephem-4-carboxylic acid]
- MIC ([1]; Table II, strain 76, read-out: MIC): 8 µg/mL (≈ 18.7 µM)
- MIC ([1]; Table II, strain 105, read-out: MIC): 8 µg/mL (≈ 18.7 µM)
- MIC ([1]; Table II, strain 158, read-out: MIC): 8 µg/mL (≈ 18.7 µM)
- MIC ([1]; Table II, strain 164, read-out: MIC): 8 µg/mL (≈ 18.7 µM)
- MIC ([1]; Table II, strain 169, read-out: MIC): 8 µg/mL (≈ 18.7 µM)
- MIC ([1]; Table II, strain 171, read-out: MIC): 8 µg/mL (≈ 18.7 µM)
- MIC ([1]; Table II, strain 312, read-out: MIC): 8 µg/mL (≈ 18.7 µM)
- MIC ([1]; Table II, strain 1930, read-out: MIC): 16 µg/mL (≈ 37.4 µM)
- MIC ([1]; Table II, strain 4842, read-out: MIC): 8 µg/mL (≈ 18.7 µM)
- MIC ([1]; Table II, strain C.L., read-out: MIC): 8 µg/mL (≈ 18.7 µM)
- MIC ([1]; Table II, strain HESS, read-out: MIC): 8 µg/mL (≈ 18.7 µM)
- MIC [1, 8]: > 64 µg/mL
- MIC [1, 9]: 16 µg/mL (≈ 37.4 µM)
- MIC [1, 10]: > 64 µg/mL
- MIC [4, 11]: 0.5 µg/mL (≈ 1.17 µM)
- MIC [4, 12]: 0.5 µg/mL (≈ 1.17 µM)
- MIC [4, 13]: 1 µg/mL (≈ 2.34 µM)
- MIC [4, 14]: 0.5 µg/mL (≈ 1.17 µM)
- MIC [4, 15]: 0.5 µg/mL (≈ 1.17 µM)
- MIC [4, 16]: 1 µg/mL (≈ 2.34 µM)
- MIC [4, 17]: 0.5 µg/mL (≈ 1.17 µM)
- MIC [4, 18]: 0.5 µg/mL (≈ 1.17 µM)
- MIC [4, 19]: 1 µg/mL (≈ 2.34 µM)
- MIC [4, 20]: 0.5 µg/mL (≈ 1.17 µM)
- MIC [4, 21]: 1 µg/mL (≈ 2.34 µM)
- MIC [4, 22]: 1 µg/mL (≈ 2.34 µM)
- MIC [5, 24]: 4 µg/mL (≈ 9.36 µM)
- MIC [5, 25]: 0.5 µg/mL (≈ 1.17 µM)
- MIC [5, 26]: 2 µg/mL (≈ 4.68 µM)
- MIC [5, 27]: 2 µg/mL (≈ 4.68 µM)
- MIC [5, 28]: 1 µg/mL (≈ 2.34 µM)
- MIC [5, 29]: 0.5 µg/mL (≈ 1.17 µM)

Compound: CC1(C)S[C@@H]2[C@H](NC(=O)[C@H](N)c3ccccc3)C(=O)N2[C@H]1C(=O)O [Ampicillin, reference compound]
- MIC ([6]; read-out: MIC): 0.03 µg/mL (≈ 0.0859 µM)
- MIC ([1]; Table I, strain 251, read-out: MIC): 16 µg/mL (≈ 45.8 µM)
- MIC [1, 7]: 0.5 µg/mL (≈ 1.43 µM)
- MIC ([2]; Klebsiella, read-out: MIC): 16 µg/mL (≈ 45.8 µM)
- MIC ([3]; read-out: MIC): 0.03 µg/mL (≈ 0.0859 µM)
- MIC [5, 23]: 8 µg/mL (≈ 22.9 µM)

Compound: N[C@@H](C(=O)N[C@@H]1C(=O)N2C(C(=O)O)=C(Cl)CS[C@H]12)c1ccc2ccccc2c1 [Ex. 5A, D-7-(2-naphthylglycylamido)-3-chloro-3-cephem-4-carboxylic acid]
- MIC [6]: 0.125 µg/mL (≈ 0.299 µM)
- MIC ([1]; Table I, strain 251): 2 µg/mL (≈ 4.79 µM)
- MIC ([1]; Table I, strain BRUN): 4 µg/mL (≈ 9.57 µM)
- MIC [2]: 2 µg/mL (≈ 4.79 µM)
- MIC [3]: 0.125 µg/mL (≈ 0.299 µM)
- MIC ([4]; Table I, strain S13E): 16 µg/mL (≈ 38.3 µM)
- MIC ([4]; Table I, strain V41): 16 µg/mL (≈ 38.3 µM)
- MIC ([5]; Table I, strain EPI1): 2 µg/mL (≈ 4.79 µM)
